Data: PubChem BioAssay (NCI)
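Cultured in 96-well plates, cells were exposed to test compound for 48 hours across five concentrations. TGI marks complete inhibition of growth.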

Experiments:
Assay in all cases: NCI anticancer screen, dose series, 48 h
ACHN renal = test system: ACHN renal
NCI-H23 lung = test system: NCI-H23 lung
SK-MEL-2 melanoma = test system: SK-MEL-2 melanoma
SK-OV-3 ovarian = test system: SK-OV-3 ovarian
NCI-H522 lung = test system: NCI-H522 lung
NCI/ADR-RES ovarian = test system: NCI/ADR-RES ovarian
UACC-62 melanoma = test system: UACC-62 melanoma
SF-539 CNS = test system: SF-539 CNS
HL-60(TB) leukemia = test system: HL-60(TB) leukemia
HCC-2998 colon = test system: HCC-2998 colon

Structure (SMILES) | TGI (ACHN renal) | TGI (NCI-H23 lung) | TGI (SK-MEL-2 melanoma) | TGI (SK-OV-3 ovarian) | TGI (NCI-H522 lung) | TGI (NCI/ADR-RES ovarian) | TGI (UACC-62 melanoma) | TGI (SF-539 CNS) | TGI (HL-60(TB) leukemia) | TGI (HCC-2998 colon)
COc1cc(O)c(C(=O)/C=C/c2ccc(O)cc2)cc1Oc1ccc(C(=O)/C=C/c2ccc(O)cc2)c(O)c1 | 5.02 µM | 8.88 µM | 14.7 µM | 9.15 µM | 6.22 µM | 9.55 µM | 4.52 µM | 5.51 µM | > 100 µM | 
COc1ccc2cc(C(=O)NCCc3ccccc3)ccc2c1OC | > 100 µM | > 100 µM | > 100 µM | > 100 µM |  | > 100 µM | > 100 µM | 70.3 µM |  | > 100 µM
OC(Cn1cncn1)(Cn1cncn1)c1ccc(Cl)cc1Cl | > 100 µM | > 100 µM | > 100 µM | > 100 µM | > 100 µM |  | > 100 µM | > 100 µM | > 100 µM | 
CCOC(=O)/C(O)=C(\C=N\C(=S)Nc1ccc(Cl)c(Cl)c1)C(=O)OCC | > 100 µM | > 100 µM | > 100 µM | > 100 µM |  | > 100 µM | > 100 µM | > 100 µM | 59.7 µM | 
Cn1cc(C(=O)C2CCCCC2)ccc1=O | > 100 µM | > 100 µM | > 100 µM | > 100 µM | > 100 µM |  | > 100 µM | > 100 µM | > 100 µM | > 100 µM
CC(=O)NC1C(OCC(=O)NC(C)C(=O)NC(CCC(=O)NCCCCCNc2ccc([N+](=O)[O-])c3[nH]c4ccccc4c(=O)c23)C(N)=O)C(O)C(CO)OC1(C)OCc1ccccc1 (configuration not stated) | > 50 µM | > 50 µM | > 50 µM | > 50 µM | > 50 µM | > 50 µM | > 50 µM | > 50 µM |  | > 50 µM
CCC1OC2C(CC=C(C)C)=C3OC(C)(O)C(C)(CC)C(O)C3=C3OC(=O)C=C1C32 (configuration not stated) | > 100 µM | 57.7 µM | 84.5 µM | > 100 µM |  | > 100 µM | > 100 µM | 53.6 µM |  | > 100 µM
Cc1ccc(S(=O)(=O)OC2CN3CCC2CC3)cc1 (configuration not stated) | > 100 µM | > 100 µM | > 100 µM | > 100 µM | > 100 µM | > 100 µM | > 100 µM | > 100 µM | > 100 µM | 
C[Si](C)(C)C#C[I+]c1ccccc1 | > 100 µM | > 100 µM | > 100 µM | > 100 µM | 23.3 µM |  | > 100 µM | 79.3 µM | 61.3 µM | > 100 µM
Nc1nc(Cl)cc(NCC2(CO)CC(CCCCc3ccccc3)C2)n1 (configuration not stated) | > 100 µM | > 100 µM | > 100 µM | > 100 µM | > 100 µM |  | > 100 µM | > 100 µM | 38.3 µM | > 100 µM
CC(=O)c1nc2ccccc2n1CC(=O)c1ccc([N+](=O)[O-])cc1 |  | > 100 µM |  | > 100 µM | 15.7 µM | 49.2 µM | 60.9 µM | > 100 µM | > 100 µM | 
C=C1C(=O)OC2C(C)C3C=CC(=O)[C@@]3(C)C(OC(=O)/C(C)=C/C)C1[C@@H]2OC(C)=O (some centres not stated) | 1.68 µM | 1.29 µM | 1.18 µM | 3.52 µM | 0.334 µM | 0.73 µM | 0.81 µM | 0.987 µM |  | 3.2 µM
